Results as given in patent US4192871A, “Chemical compounds” (Glaxo Laboratories Limited, priority 1976, dated 1980).

How the values were obtained:
[1] = dissolution of the 11β-aminoester salts in aqueous acid (Table 5 and Examples 101, 225-229); type: physicochemical
Procedure: (§1) A solution of the above free base (492 mg; 1 mmole) in ethanol (10 ml) was treated with a solution (10 ml) of M/10 citric acid in ethanol water (9:1) and the mixture evaporated in vacuo at low temperature to afford a froth.
(§2) Table 5 summarises the properties and preparation of salts of the invention by one of the following methods:
(§3) A. The 11β-aminoester (1 part) was added to a solution of the acid (1 molar part) in water and the mixture stirred or shaken until a clear solution was obtained. The solution was made up with water to the weight indicated, filtered through a membrane and the pH determined.
(§4) B. The 11β-aminoester (1 part) was added to a solution of the acid (1 molar part) in water and the mixture stirred or shaken. As free base remained undissolved, further acid was added and the mixture agitated again. The solution was made up with water to the weight indicated and any material which then remained undissolved was collected in a weighed funnel and the weight of free base dissolved calculated and the pH of the solution measured.
(§5) C. A mixture of the 11β-aminoester (1 part), a 0.1 M solution of the acid (1 molar part) and ethanol was evaporated in vacuo and dried to constant weight. The residue was dissolved in a little water and any material which then remained undissolved collected in a weighed funnel and the weight of free base dissolved calculated. The solution was made up with water to the weight indicated and its pH measured.
(§6) D. The 11β-aminoester (1 part) was added to a solution of the acid (1 molar part) in water and the mixture stirred or shaken. The solution was made up with water to the weight indicated. The material remaining undissolved was collected in a weighed funnel and the weight of free base dissolved calculated and the pH of the solution measured.
(§7) E. As in method C except that further acid was added to the residue after addition of the small amount of water.
The solid citric acid used was as its monohydrate.
(§8) Sodium iodide (0.250 g) and diethylamine (0.5 ml) were added to a solution of 11β-chloroacetoxy-2β-ethoxy-3α-hydroxy-D-homo-5α-pregnan-20-one (0.250 g) in acetone (10 ml) and the mixture was left at room temperature for 3 days during which time a white solid precipated. Water was added and the yellow solution was concentrated in vacuo whereupon crystallisation occurred. The needles were filtered off and washed well with acetone/water yielding the title compound (0.201 g), m.p. 160°-73°, [α]D +60.8°. The above base (0.101 g) was stirred with citric acid monohydrate (0.042 g) in water (9.5 ml) for 21 hours. The solution was made up to 10.1 g by weight. The solid remaining out of solution was filtered off, dried and weighed. The solution was passed through a millipore filter giving an aqueous solution of the title compound, concentration 9.75 mg/ml, pH 3.66.
The above base (0.096 g) was stirred in a solution of citric acid monohydrate (0.038 g) in water (8.5 ml) for 20 hours. A large proportion of the steroid remained out of solution. More citric acid (0.038 g) was added and the mixture stirred for a further 6 hours. The solution was made up to 9.6 g by weight and the solid remaining out of solution was filtered off, dried and weighed. The solution was passed through a millipore filter giving an aqueous solution of the title compound, concentration 9.5 mg/ml, pH 2.85.
To a solution of citric acid monohydrate (52.5 mg) in water (2 ml) was added the above free base (115 mg). More water (8 ml) was added and the mixture was stirred for 72 hrs. A small amount of steroid remained out of solution and more citric acid (52.5 mg) was added. Within 5 mins. a clear solution was obtained which was made up to 11.5 g with water and filtered through a millipore filter yielding an aqueous solution of the title citrate, concentration 10 mg/ml, pH 3.0.
The above free base (112 mg) was added to a solution of citric acid monohydrate (52.5 mg) in water (2 ml). More water (8 ml) was added and the mixture was swirled from time to time. […]

pH of the salt solutions = type: physicochemical
Procedure: as §1, §2, §3, §4, §5, §6, §7
11β-N,N-Diethylaminoacetoxy-2β-ethoxy-3α-hydroxy-5α-pregnan-20-one (1.45 g) was agitated with citric acid monohydrate (621 mg) in 0.9% w/v sodium chloride solution (steriflex^(R)) (130 ml.) at 20° for 16.5 hours. The resulting solution was stirred at 21° and N/5 sodium hydroxide solution in steriflex^(R) (10.5 ml) was added dropwise during 30 minutes, raising the pH from 3.63 to 4.52. The solution was diluted to 162.5 g so that the concentration of steroid was 9 mg/ml. The solution of the citrate was filtered through a membrane and finally filtered into 8 sterile ampoules.
11β-(N-Butyl-N-ethylaminoacetoxy)-3α-hydroxy-5α-pregnan-20-one (1.80 g) was agitated with citric acid monohydrate (793 mg) in 0.9% w/v sodium chloride solution (steriflex^(R)) (160 ml) at 20° for 19.5 hours. The resulting solution was slightly cloudy. This solution was stirred at 21° and N/5 sodium hydroxide solution in steriflex^(R) (5.8 ml) was added dropwise during 15 minutes, raising the pH from 3.62 to 4.00. The solution was diluted to 201.2 g so that the concentration of steroid was 9 mg/ml. The cloudiness was removed by filtration through a membrane and the clear solution of the citrate was filtered into 8 sterile ampoules.
as §8, with “3.66. […]” for “3.66.”

[2] = method A: clear solution, 1 molar part acid, made up with water to WT. of solution 10 g, except Ex. 121 and 150: 12, 123: 12.3, 124: 7.5, 129: 10.3, 135 and 139: 8.95, 164: 10.35, 170: 10.4, 181: 10.04, 187: 9.5, 210: 10.2, 221: 15 g
[3] = aqueous solution of the salt, Table 5
[4] = method C: ethanol evaporated, residue in water, undissolved material weighed, WT. of solution Ex. 118: 10, 120: 10.4, 148: 9.54, 152: 5.6, 154: 9.1, 155: 8.77, 156: 9.06, 157: 9.5, 158: 9.38, 159: 9.17, 179: 9.65, 180: 11.7, 182: 4.9, 202: 12.05, 213: 12, 214: 11.5, 215: 11.1, 216: 11.6, 217: 12.1 g
[5] = method B: further acid added, undissolved material weighed, WT. of solution 10 g, except Ex. 130 and 141: 9.2, 142: 9.23, 143, 144, 189 and 199: 9.8, 149: 10.6, 153: 7.9, 162 and 188: 9.5, 163: 68, 166: 10.4, 168: 10.7, 169: 10.9, 183: 8.05, 184 and 201: 9.83, 185: 7.1, 186: 9.3, 192: 10.07, 193: 6.4, 195: 6.8, 196: 7, 197: 7.2, 200: 10.1, 206: 15 g

CCO[C@H]1C[C@@]2(C)[C@@H](CC[C@@H]3[C@@H]2[C@@H](OC(=O)CN(CC)CC)C[C@]2(C)[C@@H](C(C)=O)CC[C@@H]32)C[C@@H]1O.O=C(O)CC(O)(CC(=O)O)C(=O)O [Example 101 citrate salt, 11β-N,N-Diethylaminoacetoxy-2β-ethoxy-3α-hydroxy-5α-pregnan-20-one, citrate salt]
dissolution in saline ([1]; citrate salt froth, in saline): dissolved readily in saline | pH (pH of the salt solutions; solution in 0.9% w/v saline, pH adjusted with sodium hydroxide solution): 4.52 | pH (pH of the salt solutions; solution of the salt in saline, before any adjustment, citrate salt): 3.5 | pH (pH of the salt solutions; solution of the salt in saline, before any adjustment, listed as Example 223, citrate salt): 3.63

CCN(C)CC(=O)O[C@H]1C[C@]2(C)[C@@H](C(C)=O)CC[C@H]2[C@@H]2CC[C@H]3C[C@H](O)CC[C@]3(C)[C@H]21 [Example 116]
Dissolved aminoester [1, 2]: 100 mg | pH (pH of the salt solutions; [3]): 3.63

CCCN(C)CC(=O)O[C@H]1C[C@]2(C)[C@@H](C(C)=O)CC[C@H]2[C@@H]2CC[C@H]3C[C@H](O)CC[C@]3(C)[C@H]21 [Example 117]
Dissolved aminoester [1, 2]: 100 mg | pH (pH of the salt solutions; [3]): 3.4

C=CCN(CC=C)CC(=O)O[C@H]1C[C@]2(C)[C@@H](C(C)=O)CC[C@H]2[C@@H]2CC[C@H]3C[C@H](O)CC[C@]3(C)[C@H]21 [Example 118]
Dissolved aminoester [1, 4]: 38 mg | pH (pH of the salt solutions; [3]): 2.55

CC(=O)[C@H]1CC[C@H]2[C@@H]3CC[C@H]4C[C@H](O)CC[C@]4(C)[C@H]3[C@@H](OC(=O)CN(C)Cc3ccccc3)C[C@]12C [Example 119]
Dissolved aminoester [1, 5]: 73 mg | pH (pH of the salt solutions; [3]): 2.7

CCCN(CCC)CC(=O)O[C@H]1C[C@]2(C)[C@@H](C(C)=O)CC[C@H]2[C@@H]2CC[C@H]3C[C@H](O)[C@@H](OCC)C[C@]3(C)[C@H]21 [Example 120]
Dissolved aminoester [1, 4]: 87 mg | pH (pH of the salt solutions; [3]): 3.5

CCCCN(C)CC(=O)O[C@H]1C[C@]2(C)[C@@H](C(C)=O)CC[C@H]2[C@@H]2CC[C@H]3C[C@H](O)[C@@H](OCC)C[C@]3(C)[C@H]21 [Example 121]
Dissolved aminoester [1, 2]: 120 mg | pH (pH of the salt solutions; [3]): 3.65

CCCO[C@H]1C[C@@]2(C)[C@@H](CC[C@@H]3[C@@H]2[C@@H](OC(=O)CN(CC)CC)C[C@]2(C)[C@@H](C(C)=O)CC[C@@H]32)C[C@@H]1O [Example 122]
Dissolved aminoester ([1]; method A, 0.9% w/v saline in place of water, WT. of solution Ex. 122: 37.5 g, 222: 50 g): 375 mg | pH (pH of the salt solutions; solution of the salt in saline, before any adjustment): 3.5

CO[C@H]1C[C@@]2(C)[C@@H](CC[C@@H]3[C@@H]2[C@@H](OC(=O)CN2CCCCC2)C[C@]2(C)[C@@H](C(C)=O)CC[C@@H]32)C[C@@H]1O [Example 123]
Dissolved aminoester [1, 2]: 122 mg | pH (pH of the salt solutions; [3]): 3.6

CCN(CC)CC(=O)O[C@H]1C[C@]2(C)[C@@H](C(C)=O)CC[C@H]2[C@@H]2CC[C@H]3C[C@H](O)[C@@H](OC)C[C@]3(C)[C@H]21 [Example 124]
Dissolved aminoester [1, 2]: 75 mg | pH (pH of the salt solutions; [3]): 3.65

COC(=O)[C@H]1CC[C@H]2[C@@H]3CC[C@H]4C[C@H](O)CC[C@]4(C)[C@H]3[C@@H](OC(=O)CN3CCCCC3)C[C@]12C [Example 125]
Dissolved aminoester [1, 5]: 98 mg | pH (pH of the salt solutions; [3]): 2.82

CC(=O)[C@H]1CC[C@H]2[C@@H]3CC[C@H]4C[C@H](O)CC[C@]4(C)[C@H]3[C@@H](OC(=O)CN(C)CCc3ccccc3)C[C@]12C [Example 126]
Dissolved aminoester [1, 5]: 56 mg | pH (pH of the salt solutions; [3]): 2.65

CC(=O)[C@H]1CC[C@H]2[C@@H]3CC[C@H]4C[C@H](O)CC[C@]4(C)[C@H]3[C@@H](OC(=O)CN(C)C3CCCCC3)C[C@]12C [Example 127]
Dissolved aminoester [1, 2]: 100 mg | pH (pH of the salt solutions; [3]): 3.62

CC(=O)[C@H]1CC[C@H]2[C@@H]3CC[C@H]4C[C@H](O)CC[C@]4(C)[C@H]3[C@@H](OC(=O)CN3CCCCCCC3)C[C@]12C [Example 128]
Dissolved aminoester [1, 5]: 68 mg | pH (pH of the salt solutions; [3]): 2.65

CCC(C)CNCC(=O)O[C@H]1C[C@]2(C)[C@@H](C(C)=O)CC[C@H]2[C@@H]2CC[C@H]3C[C@H](O)CC[C@]3(C)[C@H]21 (stereo partly shown) [Example 129]
Dissolved aminoester [1, 2]: 92.3 mg | pH (pH of the salt solutions; [3]): 3.64

CCCCCNCC(=O)O[C@H]1C[C@]2(C)[C@@H](C(C)=O)CC[C@H]2[C@@H]2CC[C@H]3C[C@H](O)CC[C@]3(C)[C@H]21 [Example 130]
Dissolved aminoester [1, 5]: 80 mg | pH (pH of the salt solutions; [3]): 3.12

CCN(CC)CC(=O)O[C@H]1C[C@]2(C)[C@@H](C(C)=O)CC[C@H]2[C@@H]2CC[C@H]3C[C@](C)(O)CC[C@]3(C)[C@H]21 [Example 131]
Dissolved aminoester [1, 2]: 100 mg | pH (pH of the salt solutions; [3]): 3.55

CCCN(CCC)CC(=O)O[C@H]1C[C@]2(C)[C@@H](C(C)=O)CC[C@H]2[C@@H]2CC[C@H]3C[C@](C)(O)CC[C@]3(C)[C@H]21 [Example 132]
Dissolved aminoester [1, 2]: 100 mg | pH (pH of the salt solutions; [3]): 3.4

CC(=O)[C@H]1CC[C@H]2[C@@H]3CC[C@H]4C[C@](C)(O)CC[C@]4(C)[C@H]3[C@@H](OC(=O)CN3CCCCC3)C[C@]12C [Example 133]
Dissolved aminoester [1, 2]: 100 mg | pH (pH of the salt solutions; [3]): 3.7
